The source of these data is EP0244088A2, “1-Phenyl-3-benzazepine compounds and medicaments containing these compounds for treating gastrointestinal motility disorders” (SMITHKLINE BECKMAN CORPORATION, priority 1986, dated 1987).

A value given as a limit tells only on which side of the number the result lay.

In the assay the test system is lower esophageal sphincter (LES). As to the kind of experiment: Determination of LES pressure in the anesthetized dog. It is filed as in vivo, dogs. The settings on record: for ED20: Canis lupus familiaris, iv, Effective Dose 20 for increase in resting LES pressure, mean of individual ED20 values (N>=3), read-out: ED20 mcg/kg, i.v. How it is done:
Method for Determination of LES Pressure in the Anesthetized Dog
Mongrel or beagle dogs, male and female, are anesthetized using sodium pentobarbital (35.0 mg/kg., I.V.). Sodium pentobarbital is then continuously infused (approximatemated 6.0 mg/kg/hr) to maintain deep anesthesia. Blood pressure is monitored via a catheter surgically implanted into the femoral artery and attached to a Gould's P231D transducer. A catheter is also implanted into the femoral vein to administer test drugs. Respiration is maintained by an endotracheal tube attached to a respirator. A continuously perfused manometric catheter system including a Dent sleeve to measure sphincter pressure (Dent, Gastroenterology 7l: 263-267, l976) is inserted into the esophagus and positioned so that intraluminal pressure is recorded from the body of the esophagus, the lower esophageal sphincter (LES) and the fundus of the stomach. The Dent sleeve catheter is perfused at a rate of 0.5 ml of water per minute for each lumen of the catheter by using an Arndorfer Hydraulic Capillary Infusion System. A cannula is implanted into the gastric antrum to allow drainage of the perfusate solution and prevent intestinal distension. Continuous tracings of esophageal, LES and fundus pressure are monitored on a Grass Polygraph (Model 7D). Correct positioning of the Dent sleeve is verified by noting a high pressure zone at the LES and by administration of an intravenous dose of 5-HT (usually l0-l5 mcg/kg) which contracts the LES while having little or no recordable effect on either the body of the esophagus or the fundus. After verification of placement of the sleeve, the animal is allowed to stabilize for approximately 30 minutes.
Compounds are administered intravenously, intraduodenally or intragastrically. In most cases, succeeding doses of the same or different compounds are given only after the LES pressure has returned to approximate predosing baseline values. In all cases, the magnitude of change in LES pressure is determined from the baseline pressure immediately prior to each treatment to the maximum pressure during treatment. Since the compounds used usually produce an immediate effect on LES pressure, no pretreatment time prior to measurement is necessary during this testing.
Direct assay techniques are used to estimate an Effective Dose 20 (ED₂₀) for the test compound in individual animals. The mean ED₂₀ and 95% confidence limits are determined using the individual ED₂₀ values from a group of animals (N=≧3) that received the same treatment.

Regarding `Oc1cc(Cl)c2c(c1)C(c1ccccc1)CNCC2` (stereo not drawn) [compound 1, 6-Chloro-8-hydroxy-l-phenyl-2,3,4,5-tetrahydro-lH-3-benzazepine], the ED20 is 0.445 mg/kg. For `CS(=O)(=O)c1cc2c(cc1O)CCNCC2c1ccccc1` (stereo not drawn) [compound 2, 7-Hydroxy-8-methylsulfonyl-l-phenyl-2,3,4,5-tetrahydro-lH-3-benzazepine], the ED20 was determined as 0.317 mg/kg. For `CS(=O)(=O)c1cc2c(cc1O)C(c1ccccc1)CNCC2` (stereo not drawn) [compound 3, 8-Hydroxy-7-methylsulfonyl-l-phenyl-2,3,4,5-tetrahydro-lH-3-benzazepine], the ED20 stood at 0.05 mg/kg.

Turning to `Oc1cc2c(cc1Br)CCNCC2c1ccccc1` (stereo not drawn) [compound 4, 7-Bromo-8-hydroxy-l-phenyl-2,3,4,5-tetrahydro-lH-3-benzazepine], the ED20 turned out to be 0.016 mg/kg. Regarding `Cc1cc2c(cc1O)C(c1ccccc1)CNCC2` (stereo not drawn) [compound 5, 8-Hydroxy-7-methyl-l-phenyl-2,3,4,5-tetrahydro-lH-3-benzazepine], the ED20 came out at 0.026 mg/kg. As for `CSc1cc2c(cc1O)C(c1ccccc1)CNCC2` (stereo not drawn) [compound 6, 8-hydroxy-7-methylthio-l-phenyl-2,3,4,5-tetrahydro-lH-3-benzazepine], the ED20 was determined as 0.017 mg/kg. As to `Oc1cc2c(cc1C(F)(F)F)CCNCC2c1ccccc1` (stereo not drawn) [compound 7, 8-Hydroxy-l-phenyl-7-trifluoromethyl-2,3,4,5-tetrahydro-lH-3-benzazepine], the ED20 amounted to 0.02 mg/kg. On to `COc1cc2c(cc1Br)CCN(C)CC2c1ccccc1` (stereo not drawn) [compound 8, 7-Bromo-8-methoxy-3-methyl-l-phenyl-2,3,4,5-tetrahydro-lH-3-benzazepine], for which the ED20 came to 0.079 mg/kg.

On to `CN1CCc2cc(Cl)c(Cl)cc2C(c2ccccc2)C1` (stereo not shown) [compound 9], for which the ED20 turned out to be 0.623 mg/kg.

In the case of `Oc1cc2c(cc1O)C(c1ccccc1)CNCC2` (stereo not drawn) [compound 10, 7,8-dihydroxy-l-phenyl-2,3,4,5-tetrahydro-lH-3-benzazepine], the ED20 is 0.735 mg/kg. As for `Cc1cc2c(cc1O)C(c1ccc(O)cc1)CNCC2` (stereo not drawn) [compound 11, 8-Hydroxy-l-(4-hydroxyphenyl)-7-methyl-2,3,4,5-tetrahydro-lH-3-benzazepine], the ED20 amounted to 0.044 mg/kg.

For `COc1cc2c(cc1S(C)(=O)=O)CCNCC2c1ccccc1` (stereo not drawn) [compound 12, 8-Methoxy-7-methylsulfonyl-l-phenyl-2,3,4,5-tetrahydro-lH-3-benzazepine], the “change in LES pressure (baseline to maximum during treatment)” value (at 250 (mcg/kg per column head), i.g.) is reported as 15 mm Hg at 250 (i.g.). `COCc1cc2c(cc1O)C(c1ccccc1)CNCC2` (stereo not drawn) [compound 13, 8-hydroxy-7-methoxymethyl-l-phenyl-2,3,4,5-tetrahydro-lH-3-benzazepine]: the ED20 was less than 0.05 mg/kg. Same read-out and setting: to `OCc1cc2c(cc1O)C(c1ccccc1)CNCC2` (stereo not drawn) [compound 14, 8-hydroxy-7-hydroxymethyl-l-phenyl-2,3,4,5-tetrahydro-lH-3-benzazepine] belongs 0.1 mg/kg. Still for that read-out and setting: the result for `CS(=O)(=O)Nc1cc2c(cc1O)CCNCC2c1ccccc1` (stereo not drawn) [compound 15, 7-hydroxy-8-methanesulfonamido-l-phenyl-2,3,4,5-tetrahydro-lH-3-benzazepine] reads 0.5 mg/kg; that for `CC(=O)Nc1cc2c(cc1O)C(c1ccccc1)CNCC2` (stereo not drawn) [compound 16, 7-Acetamido-8-hydroxy-l-phenyl-2,3,4,5-tetrahydro-lH-3-benzazepine], less than 2 mg/kg.
